Patent US11963941B2, “Use of a fasting mimicking diet to enhance the efficacy of antiestrogens in cancer” (UNIVERSITA' DEGLI STUDI DI GENOVA, priority 2016, dated 2024)
Entries after “also recorded” stand apart in the source; their conditions may differ.

Key:
[1] = test system: MCF7 cells; experiment: Short-term viability assay (72 h, sulforhodamine B) with chemotherapeutics; type: cell-based; details: FIG. 7
Experimental: In the experiment of FIG. 7, 5×10^3 MCF7 cells/well were plated in 96-well plates in regular DMEM medium containing 10% FBS. 24 h later, the cell medium was removed and cells were incubated for 24 h either in the same medium or in low-glucose (0.5 g/L) DMEM medium containing 1% FBS (fasting mimicking conditions). 24 h later, 10 μM tamoxifen (Tam) was added to the culture medium where indicated. 24 h later, cells were stimulated with doxorubicin or Taxotere at the indicated concentrations. Viability was determined 72 h later in sulforhodamine B assays.

[2] = literature refs [5], [6]; cited from earlier work
[3] = test system: MCF7 cells; experiment: Cell cycle analysis (G1 arrest); type: cell-based; details: 10 μM tamoxifen, 24 h, FIG. 2A
Experimental: (§1) In particular, in the experiments of FIGS. 2A-D, 5×10^5 MCF7, ZR-75-1 or T47D cells were plated in 6-well plates in regular DMEM medium containing 10% FBS. 24 h later, the cell medium was removed and cells were incubated for 24 h either in the same medium (CTR) or in fasting mimicking conditions or a fasting mimicking diet (FMD). 24 h later, 10 μM tamoxifen (Tam) was added to the culture medium where indicated. 24 h later, cells were used for cell cycle analysis or for mRNA extraction and subsequent determination of E2F1, E2F4 and CCNE1 expression by QPCR.

[4] = test system: T47D cells; experiment: Cell cycle analysis (G1 arrest); type: cell-based; details: 10 μM tamoxifen, 24 h, FIG. 2C
Experimental: as §1

[5] = test system: MCF7 cells; experiment: Cell viability in control vs fasting mimicking (FMD) medium; type: cell-based; details: FMD = low-glucose (0.5 g/L) DMEM, 1% FBS, vs regular medium, FIG. 1A, 1D
Experimental: In particular, in the experiments of FIGS. 1A-D, 3×10^3 MCF7 (A, D), ZR-75-1 (B) or T47D (C) cells were plated in 96 well plates in regular DMEM medium containing 10% FBS. 24 h later, the cell medium was removed and cells were incubated for 24 h either in the same medium (CTR) or in low-glucose (0.5 g/L) DMEM medium containing 1% FBS (FMD). 24 h later, tamoxifen (Tam) or fulvestrant (Fulv) at the indicated concentrations were added to the culture medium.

[6] = test system: MCF7 xenografts; experiment: MCF7 xenograft tumor growth
[7] = type: in vivo; details: fasting (water only, 48 h) + tamoxifen 30 mg/kg/die; FIG. 8C
[8] = test system: T47D cells; experiment: Cell viability in control vs fasting mimicking (FMD) medium; type: cell-based; details: FMD = low-glucose (0.5 g/L) DMEM, 1% FBS, vs regular medium, FIG. 1C
[9] = test system: T47D cells
[10] = test system: MCF7 cells; experiment: Gene expression by QPCR; type: cell-based
Experimental: as §1
In the experiment of FIG. 4, MCF7, ZR-75-1 or T47D cells were treated as in the experiment of FIG. 2. 24 h after tamoxifen (5 μM) addition, cells were used for protein lysate generation or for mRNA extraction, ER and β-actin were detected by immunoblotting. TTF1 expression was determined by QPCR.
In the experiment of FIG. 6, MCF7, ZR-75-1 or T47D cells were treated as in the experiment of FIG. 2. 24 h after tamoxifen (5 μM) addition, cells were used for RNA extraction or for protein lysate generation. In FIG. 6A, RAD51 expression was detected by QPCR. In FIG. 6B, RAD51 and (β-actin were detected by immunoblotting.

[11] = test system: T47D cells; experiment: Gene expression by QPCR; type: cell-based
[12] = test system: MCF7 cells; experiment: Global gene expression microarrays; type: cell-based
[13] = test system: MCF7 cells; type: cell-based; details: FMD + tamoxifen 5 μM, 24 h
[14] = FMD + tamoxifen 5 μM, 24 h, FIG. 3
[15] = FMD + tamoxifen 5 μM, 24 h, FIG. 4B
[16] = FMD + tamoxifen 5 μM, 24 h, FIG. 6A
[17] = FMD + tamoxifen 10 μM vs single treatments, FIG. 2D
[18] = MCF7 treated with tamoxifen and FMD, 4 biological replicates/condition

With `CC(=O)O[C@@]12CO[C@@H]1C[C@H](O)[C@@]1(C)C(=O)[C@H](O)C3=C(C)[C@@H](OC(=O)[C@H](O)[C@@H](NC(=O)OC(C)(C)C)c4ccccc4)C[C@@](O)([C@@H](OC(=O)c4ccccc4)[C@H]21)C3(C)C` [Taxotere, docetaxel] the “cell viability, triple treatment tamoxifen + Taxotere + FMD” value ([1]; taxotere 100 nM) was “most pronounced reduction in cell viability”.
For `COc1cccc2c1C(=O)c1c(O)c3c(c(O)c1C2=O)C[C@@](O)(C(=O)CO)C[C@@H]3O[C@H]1C[C@H](N)[C@H](O)[C@H](C)O1` [doxorubicin], the “cell viability, triple treatment tamoxifen + doxorubicin + FMD” value ([1]; doxorubicin 100 nM) was “most pronounced reduction in cell viability”.
In the case of `CO[C@H]1C[C@@H]2CC[C@@H](C)[C@@](O)(O2)C(=O)C(=O)N2CCCC[C@H]2C(=O)O[C@H]([C@H](C)C[C@@H]2CC[C@@H](OCCO)[C@H](OC)C2)CC(=O)[C@H](C)/C=C(\C)[C@@H](O)[C@@H](OC)C(=O)[C@H](C)C[C@H](C)/C=C/C=C/C=C/1C` [everolimus], the significant side effects [2] is listed as “stomatitis, anemia and hyperglycemia”.
For `C[C@]12CC[C@@H]3c4ccc(O)cc4C[C@@H](CCCCCCCCC[S+]([O-])CCCC(F)(F)C(F)(F)F)[C@H]3[C@@H]1CC[C@@H]2O` (some centres unmarked) [fulvestrant], the “induction of a G1 cell cycle arrest, drug + FMD” value (shortened to “induction”) [3] was “increased the ability”, the “induction” value [4] was “increased the ability” and the “cell viability: potentiation of drug activity by FMD conditions” value (“cell viability: potentiation” below) [5] was “marked increase”.
In the case of `CC/C(=C(\c1ccccc1)c1ccc(OCCN(C)C)cc1)c1ccccc1` [tamoxifen], the “growth of MCF7 xenografts (tumor volume), drug alone” value ([6]; normal diet, tamoxifen 30 mg/kg/die oral gavage, FIG. 8A) is reported as “reduced the growth”, the “growth of MCF7 xenografts (tumor volume), drug + fasting” value ([6]; tamoxifen 30 mg/kg/die oral gavage + fasting (water only, 48 h, once a week), p<0.05) is reported as “significantly more effective than either type of treatment alone” and the “mouse body weight loss, addition of drug to fasting” value [7] is reported as “failed to worsen weight losses”. For the same compound, the “cell viability: potentiation” value [8] was “strong potentiation”, the 4E-BP1 phosphorylation state [9, 14] was “marked accumulation of the unphosphorylated form” and the “mTOR activity (levels of phosphorylated p70S6K and eIF4E)” value [9, 14] was “marked inhibition of mTOR activity”. The “RAD51 expression at the protein level” value ([9]; FMD + tamoxifen 5 μM, 24 h, FIG. 6B) was “strong RAD51 downregulation”, the HER2 expression ([9]; FMD in combination with tamoxifen 5 μM, FIG. 3) was “marked reduction in HER2 expression” and the “induction” value [3] was “increased the ability”. The “induction” value [4] was “increased the ability; also recorded: only occurred in response to a combined treatment”, the “TTF1 expression (ERα-mediated transcription)” value [10, 15] was “increase the ability of tamoxifen to reduce TTF1 expression” and the “RAD51 expression at the mRNA level” value [10, 16] was “strong RAD51 downregulation”. The “downregulation of cell cycle promoting genes (E2F1, E2F2 and CCNE1)” value [10, 17] was “more pronounced”, the “TTF1 expression (ERα-mediated transcription)” value [11, 15] was “increase the ability of tamoxifen to reduce TTF1 expression” and the “RAD51 expression at the mRNA level” value [11, 16] was “strong RAD51 downregulation”. The “downregulation of cell cycle promoting genes (E2F1, E2F2 and CCNE1)” value [11, 17] was “more pronounced; also recorded: only occurred in response to a combined treatment”, the “gene ontology/pathway analysis of differentially expressed genes” value ([12]; MCF7, FMD added to tamoxifen vs FMD alone or tamoxifen alone, FIG. 5) was “marked changes in pathways related to DNA repair” and the “BRCA1 Log2 fold change” value [12, 18] was −1.372. For the same compound, the “EXO1 Log2 fold change” value [12, 18] was −1.583, the “PCNA Log2 fold change” value [12, 18] was −1.658 and the “RAD51 Log2 fold change” value [12, 18] was −1.864. For the same compound, the “TIPIN Log2 fold change” value [12, 18] was −1.604, the “cell viability: potentiation” value [5] was “strong potentiation” and the 4E-BP1 phosphorylation state ([13]; FIG. 3) was “marked accumulation of the unphosphorylated form”. For the same compound, the “mTOR activity (levels of phosphorylated p70S6K and eIF4E)” value ([13]; FIG. 3) was “marked inhibition of mTOR activity” and the “RAD51 expression at the protein level” value ([13]; FIG. 6B) was “strong RAD51 downregulation”.
